Patent US6774126B2, “Pyrrolo[1,2-b][1,2,4]oxadiazine diones useful as nitric oxide synthase inhibitors” (Pharmacia Corporation, priority 1998, dated 2004)

System: plasma nitrites induced by endotoxin (LPS)
Experiment: In Vivo Assay: Low Dose LPS, plasma nitrites in endotoxin-treated mice
Settings: LPS 12.5 mg/kg i.p., plasma nitrites 5 hours post-treatment
Method: In Vivo Assay Mice were treated with an intraperitoneal injection of 12.5 mg/kg of endotoxin (LPS) with or without oral administration of the nitric oxide synthase inhibitors. Plasma nitrites were measured 5 hours post-treatment.

With `O=c1onc2n1CCCCC2` [Example 1, 6,7,8,9-tetrahydro-3H,5H-[1,2,4]oxadiazolo[4,3-a]azepin-3-one] the “Low Dose LPS in vivo, inhibition of rise in plasma nitrites” value (shortened to “Low Dose LPS in vivo, inhibition of rise”) (compound 1 mg/kg p.o.) was 23% inh and the “Low Dose LPS in vivo, inhibition of rise” value (compound 10 mg/kg p.o.) was 72% inh.
With `NCCC1CCCCc2noc(=O)n21` (stereo not shown) [Example 3, 5-(2-aminoethyl)-6,7,8,9-tetrahydro-3H,5H-[1,2,4]oxadiazolo[4,3-a]azepin-3-one, mono(trifluoroacetate)] the “Low Dose LPS in vivo, inhibition of rise” value (compound 3 mg/kg p.o.) was 33% inh and the “Low Dose LPS in vivo, inhibition of rise” value (compound 10 mg/kg p.o.) was 64% inh.
